Test: Hydrolysis of phosphoramidite building blocks in 95% aqueous MeCN followed by reverse-phase HPLC
Type: physicochemical
Details: 95% aqueous MeCN at 25° C.
Description: The hydrolysis of phosphoramidite building blocks 12 and 16 in 95% aqueous MeCN at 25° C. was followed by reverse-phase HPLC.

Row | Substance | half-life of hydrolysis [h]
1 | 5′-O-(4,4′-Dimethoxytrityl)-3′-O—[(N,N-diisopropylamino)[2-[[2-[(2,3,4,6-tetra-O-acetyl-β-D-glucopyranosyl)oxy]ethyl]oxy]ethoxy]phosphinyl]thymidine [Compound 16] | 33
2 | 5′-O-(4,4′-Dimethoxytrityl)-3′-O—[(N,N-diisopropylamino)[3-[(2,3,4,6-tetra-O-acetyl-β-D-glucopyranosyl)oxy]propyl]phosphino]thymidine [Compound 12] | 48
